In PubChem BioAssay AID1919017 (Molecular Pharmacology Branch, DTP, NCI, 2023):

System: SW1271 complex spheroids with HUVEC/MSC, growth, % test/control
Test: Anticancer human tumor SW1271 cell line growth inhibition [AhR];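 note: spheroids exposed to agents for 7 days before readout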
Settings: for IC50: curve of first compound; for viability, T/C: stronger effect = lower value
Summary of the method: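 Spheroids combined tumor cells with HUVEC endothelial cells and human MSCs as stroma. AhR antagonists were paired with standard or investigational drugs, each dosed in half-log steps down from near clinical Cmax, or from 10 microM where Cmax was unknown.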

[1] = second compound 0.1 µM, first compound 0.0316 µM
[2] = second compound 0.1 µM, first compound 0.1 µM
[3] = second compound 0.1 µM, first compound 0.316 µM
[4] = second compound 0.1 µM, first compound 1 µM
[5] = second compound 0.1 µM, first compound 3.16 µM
[6] = second compound 0.1 µM, first compound 10 µM
[7] = second compound 0.316 µM, first compound 0.0316 µM
[8] = second compound 0.316 µM, first compound 0.1 µM
[9] = second compound 0.316 µM, first compound 0.316 µM
[10] = second compound 0.316 µM, first compound 1 µM
[11] = second compound 0.316 µM, first compound 3.16 µM
[12] = second compound 0.316 µM, first compound 10 µM
[13] = second compound 1 µM, first compound 0.0316 µM
[14] = second compound 1 µM, first compound 0.1 µM
[15] = second compound 1 µM, first compound 0.316 µM
[16] = second compound 1 µM, first compound 1 µM
[17] = second compound 1 µM, first compound 3.16 µM
[18] = second compound 1 µM, first compound 10 µM
[19] = second compound 3.16 µM, first compound 0.0316 µM
[20] = second compound 3.16 µM, first compound 0.1 µM
[21] = second compound 3.16 µM, first compound 0.316 µM
[22] = second compound 3.16 µM, first compound 1 µM
[23] = second compound 3.16 µM, first compound 3.16 µM
[24] = second compound 3.16 µM, first compound 10 µM
[25] = second compound 10 µM, first compound 0.0316 µM
[26] = second compound 10 µM, first compound 0.1 µM
[27] = second compound 10 µM, first compound 0.316 µM
[28] = second compound 10 µM, first compound 1 µM
[29] = second compound 10 µM, first compound 3.16 µM
[30] = second compound 10 µM, first compound 10 µM

| SMILES | IC50 (second compound 0.1 µM) [nM] | IC50 (second compound 0.316 µM) [nM] | IC50 (second compound 1 µM) [nM] | IC50 (second compound 3.16 µM) [nM] | IC50 (second compound 10 µM) [nM] | viability, T/C [1] [%] | viability, T/C [2] [%] | viability, T/C [3] [%] | viability, T/C [4] [%] | viability, T/C [5] [%] | viability, T/C [6] [%] | viability, T/C [7] [%] | viability, T/C [8] [%] | viability, T/C [9] [%] | viability, T/C [10] [%] | viability, T/C [11] [%] | viability, T/C [12] [%] | viability, T/C [13] [%] | viability, T/C [14] [%] | viability, T/C [15] [%] | further results |
| --- | --- | --- | --- | --- | --- | --- | --- | --- | --- | --- | --- | --- | --- | --- | --- | --- | --- | --- | --- | --- | --- |
| Nc1ccn(C2OC(CO)C(O)C2(F)F)c(=O)n1 (stereo not given) + Cc1ccccc1N=Nc1ccc(NC(=O)c2ccnn2C)c(C)c1 | < 31.6 | 66.1 | < 31.6 | < 31.6 | 335 | 39.2 | 48.4 | 47.2 | 52.8 | 41.3 | 37.2 | 54.6 | 49.8 | 41.8 | 39.5 | 39 | 45.1 | 41.1 | 50.1 | 56.7 | viability, T/C [16]: 41.5%; viability, T/C [17]: 45.6%; viability, T/C [18]: 40.3%; viability, T/C [19]: 43.2%; viability, T/C [20]: 51%; viability, T/C [21]: 40.7%; viability, T/C [22]: 44.2%; viability, T/C [23]: 39.7%; viability, T/C [24]: 48.5%; viability, T/C [25]: 56.5%; viability, T/C [26]: 57.3%; viability, T/C [27]: 50.2%; viability, T/C [28]: 43.1%; viability, T/C [29]: 44.7%; viability, T/C [30]: 50.4% |
| O=C(C=Cc1cccc(S(=O)(=O)Nc2ccccc2)c1)NO + Cc1ccccc1N=Nc1ccc(NC(=O)c2ccnn2C)c(C)c1 | 941 | 1430 | 763 | 1550 | 1860 | 86 | 87.1 | 61.9 | 54.3 | 26.5 | 17.8 | 84.3 | 91 | 64.6 | 59.8 | 35.5 | 18.9 | 105 | 98.6 | 68.5 | viability, T/C [16]: 48.1%; viability, T/C [17]: 23.1%; viability, T/C [18]: 28.4%; viability, T/C [19]: 84.4%; viability, T/C [20]: 94%; viability, T/C [21]: 86.8%; viability, T/C [22]: 57.5%; viability, T/C [23]: 36.7%; viability, T/C [24]: 22.3%; viability, T/C [25]: 104%; viability, T/C [26]: 71.2%; viability, T/C [27]: 88.2%; viability, T/C [28]: 57.6%; viability, T/C [29]: 38.3%; viability, T/C [30]: 26.1% |
| O=C(c1cc(Cc2n[nH]c(=O)c3ccccc23)ccc1F)N1CCN(C(=O)C2CC2)CC1 + Cc1ccccc1N=Nc1ccc(NC(=O)c2ccnn2C)c(C)c1 | > 10000 | > 10000 | > 10000 | > 10000 | > 10000 | 82.5 | 101 | 98.3 | 91.4 | 88.4 | 78.9 | 106 | 104 | 102 | 98.7 | 96.3 | 90.8 | 79.5 | 116 | 104 | viability, T/C [16]: 92.5%; viability, T/C [17]: 114%; viability, T/C [18]: 98.3%; viability, T/C [19]: 94.3%; viability, T/C [20]: 109%; viability, T/C [21]: 104%; viability, T/C [22]: 81.9%; viability, T/C [23]: 99.2%; viability, T/C [24]: 100%; viability, T/C [25]: 89.4%; viability, T/C [26]: 107%; viability, T/C [27]: 108%; viability, T/C [28]: 83.5%; viability, T/C [29]: 89.5%; viability, T/C [30]: 102% |
